Test results taken from the supplement of paper PMC10331698.
± gives the standard deviation of the averaged measurements.

How the values were obtained:
Assay in all cases: level (log10 ratio to DMSO vehicle control); higher = higher biomarker level / cell amount than vehicle control
[1] = compound: C=CC(=O)OCC(F)(F)C(F)(F)C(F)(F)C(F)(F)COC(=O)C=C [1H,1H,6H,6H-Perfluorohexane-1,6-diol diacrylate]; details: 6700 nM; in DMSO
Experimental: (§1)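 BioMAP Diversity Plus panel of 12 human primary cell co-culture systems (3C, 4H, LPS, SAg, BT, BF4T, BE3C, CASM3C, HDF3CGF, KF3CT, MyoF, Mphg). Compounds were added 1 h before stimulation and left for 24 h (MyoF 48 h; BT 72 h for soluble read-outs or 6 d for IgG). Biomarkers were read by ELISA, cytotoxicity by SRB, PBMC viability and proliferation by Alamar Blue. Each well value was divided by the mean of 8 DMSO control wells on the same plate and log10 transformed; duplicate blinded samples were tested at 4 concentrations.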

[2] = compound: C=CC(=O)OCCC(F)(F)C(F)(F)C(F)(F)C(F)(F)C(F)(F)C(F)(F)C(F)(F)C(F)(F)F [8:2 Fluorotelomer acrylate]; details: in DMSO
Experimental: as §1

[3] = compound: Cc1ccc(S(=O)(=O)OCC(F)(F)C(F)(F)C(F)(F)C(F)(F)C(F)(F)C(F)F)cc1 [1H,1H,7H-Perfluoroheptyl 4-methylbenzenesulfonate]; details: in DMSO
Experimental: as §1

[4] = compound: O=C(O)C(F)(F)C(F)(F)C(F)(F)C(F)(F)C(F)(F)C(F)(F)C(F)(F)F [Ammonium perfluorooctanoate]; details: in DMSO
Experimental: as §1

[5] = compound: O=S(=O)(O)CCC(F)(F)C(F)(F)C(F)(F)C(F)(F)F [4:2 Fluorotelomer sulfonic acid]; details: in DMSO
Experimental: as §1

[6] = compound: OCC(F)(F)C(F)(F)C(F)(F)C(F)(F)C(F)(F)C(F)(F)F [6:1 Fluorotelomer alcohol]; details: in DMSO
Experimental: as §1

[7] = compound: OCCCCC(F)(F)C(F)(F)C(F)(F)C(F)(F)F [4:4 Fluorotelomer alcohol]; details: in DMSO
Experimental: as §1

Test System | level (log10) [1] | level (log10) ([2]; 6700 nM) | level (log10) ([2]; 20000 nM) | level (log10) ([2]; 60000 nM) | level (log10) ([3]; 6700 nM) | level (log10) ([3]; 20000 nM) | level (log10) ([3]; 60000 nM) | level (log10) ([4]; 6700 nM) | level (log10) ([4]; 20000 nM) | level (log10) ([4]; 60000 nM) | level (log10) ([5]; 6700 nM) | level (log10) ([5]; 20000 nM) | level (log10) ([5]; 60000 nM) | level (log10) ([6]; 6700 nM) | level (log10) ([6]; 20000 nM) | level (log10) ([6]; 60000 nM) | level (log10) ([7]; 6700 nM) | level (log10) ([7]; 20000 nM) | level (log10) ([7]; 60000 nM)
KF3CT:CCL2/MCP-1 | -0.101 ± 0.045 | -0.0265 ± 0.042 | -0.0415 ± 0.0092 | -0.0725 ± 0.04 | 0.0035 ± 0.028 | -0.077 ± 0.025 | -0.009 ± 0.048 | 0.011 ± 0.024 | -0.0245 ± 0.036 | -0.119 ± 0.0064 | -0.0205 ± 0.012 | -0.0125 ± 0.012 | -0.0015 ± 0.025 | 0.012 ± 0.0014 | 0.009 ± 0.0099 | -0.007 ± 0.0085 | -0.0035 ± 0.057 | 0.004 ± 0.044 | 0.0225 ± 0.042
KF3CT:CD54/ICAM-1 | -0.076 ± 0.0028 | 0.003 ± 0.0042 | -0.0155 ± 0.029 | -0.0455 ± 0.019 | 0.003 ± 0.0057 | 0.001 ± 0.0042 | 0 ± 0.0042 | 0.004 ± 0.016 | -0.0165 ± 0.018 | -0.03 ± 0.023 | -0.006 ± 0.0085 | -0.0125 ± 0.0092 | -0.0125 ± 0.0078 | 0.001 ± 0.0014 | -0.005 ± 0.0071 | 0.016 ± 0.013 | 0.0095 ± 0.019 | -0.0025 ± 0.018 | 0.005 ± 0.024
KF3CT:CXCL8/IL-8 | 0.0005 ± 0.021 | -0.011 ± 0.0014 | -0.047 ± 0.076 | -0.117 ± 0.053 | -0.005 ± 0.0028 | -0.103 ± 0.013 | -0.04 ± 0.014 | 0.0075 ± 0.032 | 0.036 ± 0.018 | 0.034 ± 0.02 | -0.0095 ± 0.0078 | -0.024 ± 0.018 | -0.023 ± 0.025 | -0.0005 ± 0.025 | -0.0045 ± 0.023 | 0.0025 ± 0.015 | 0.0185 ± 0.037 | -0.006 ± 0.023 | 0.0205 ± 0.036
KF3CT:CXCL9/MIG | -0.034 ± 0.0071 | -0.0065 ± 0.0092 | 0.0005 ± 0.0035 | 0.011 ± 0.0085 | -0.005 ± 0.014 | -0.0025 ± 0.012 | -0.008 ± 0.0057 | 0.005 ± 0.0014 | 0.0095 ± 0.0035 | 0.0115 ± 0.016 | 0.0005 ± 0.0021 | 0.004 ± 0.016 | 0.0105 ± 0.016 | -0.0025 ± 0.019 | -0.003 ± 0.016 | 0.0025 ± 0.0021 | 0.007 ± 0.023 | 0.0105 ± 0.011 | 0.0125 ± 0.022
KF3CT:CXCL10/IP-10 | -0.0365 ± 0.005 | -0.007 ± 0.0057 | -0.0125 ± 0.0021 | -0.0135 ± 0.00071 | -0.009 ± 0.014 | -0.0195 ± 0.0078 | -0.016 ± 0.0099 | -0.0025 ± 0.00071 | -0.0045 ± 0.005 | -0.007 ± 0.0014 | -0.007 ± 0.0028 | -0.0145 ± 0.011 | -0.0115 ± 0.0092 | 0.0155 ± 0.0035 | 0.0055 ± 0.015 | 0.011 | 0.0105 ± 0.04 | 0.02 ± 0.03 | 0.0275 ± 0.037
KF3CT:IL-1alpha | -0.0545 ± 0.035 | 0.0005 ± 0.011 | -0.0245 ± 0.00071 | -0.0355 ± 0.04 | -0.053 ± 0.024 | -0.01 ± 0.024 | 0.013 ± 0.038 | -0.0065 ± 0.00071 | -0.026 ± 0.0071 | -0.079 ± 0.025 | -0.0155 ± 0.0021 | -0.0355 ± 0.0078 | -0.021 ± 0.021 | -0.005 ± 0.02 | 0.0195 ± 0.021 | 0.007 ± 0.0071 | 0.0145 ± 0.029 | 0.005 ± 0.042 | 0.019 ± 0.03
KF3CT:MMP-9 | -0.035 ± 0.064 | -0.042 | -0.0885 ± 0.044 | -0.132 ± 0.047 | -0.014 ± 0.031 | -0.073 ± 0.025 | -0.0915 ± 0.03 | 0.0045 ± 0.018 | 0.017 ± 0.0099 | 0.0105 ± 0.023 | 0.0075 ± 0.012 | -0.011 ± 0.037 | 0.023 ± 0.0057 | -0.018 ± 0.0028 | -0.0315 ± 0.0021 | 0.002 ± 0.0028 | -0.011 ± 0.013 | -0.003 ± 0.034 | 0.011 ± 0.021
KF3CT:PAI-I | 0.048 ± 0.0071 | -0.009 ± 0.014 | 0.0155 ± 0.012 | 0.001 ± 0.0085 | -0.016 ± 0.02 | 0.0005 ± 0.0078 | -0.032 ± 0.0042 | -0.0015 ± 0.0021 | -0.018 ± 0.0099 | -0.01 ± 0.0099 | -0.005 ± 0.0071 | -0.015 ± 0.0014 | -0.0175 ± 0.0064 | -0.0005 ± 0.011 | -0.001 ± 0.011 | 0.008 ± 0.0099 | -0.012 ± 0.017 | -0.0075 ± 0.013 | -0.009 ± 0.013
KF3CT:SRB | 0.003 ± 0.0057 | -0.0005 ± 0.005 | 0.002 ± 0.0085 | 0.0105 ± 0.013 | -0.0215 ± 0.013 | -0.032 ± 0.011 | -0.0335 ± 0.0078 | -0.0125 ± 0.0035 | -0.0115 ± 0.0021 | -0.0195 ± 0.0021 | -0.0015 ± 0.0021 | -0.0015 ± 0.0021 | 0.0035 ± 0.0092 | -0.0035 ± 0.0064 | -0.0025 ± 0.0035 | -0.004 ± 0.0028 | -0.02 ± 0.0085 | -0.011 ± 0.017 | 0.004 ± 0.018
KF3CT:TIMP-2 | -0.088 ± 0.0057 | -0.0125 ± 0.037 | -0.02 | 0.016 ± 0.013 | -0.0015 ± 0.005 | 0.0025 ± 0.029 | 0.017 ± 0.021 | -0.006 ± 0.0028 | -0.011 ± 0.018 | 0.0065 ± 0.025 | -0.0215 ± 0.023 | -0.0185 ± 0.042 | -0.0025 ± 0.0064 | -0.0025 ± 0.005 | 0.0035 ± 0.0021 | 0.008 ± 0.017 | 0.0135 ± 0.0064 | 0.0075 ± 0.019 | -0.0015 ± 0.015
KF3CT:uPA | -0.057 ± 0.0057 | 0.003 ± 0.013 | -0.0165 ± 0.037 | -0.004 ± 0.0014 | 0.006 ± 0.021 | -0.036 ± 0.023 | -0.0335 ± 0.022 | 0.0125 ± 0.012 | 0.006 ± 0.017 | 0.001 ± 0.013 | 0 ± 0.0042 | 0 ± 0.0028 | -0.0075 ± 0.028 | -0.0045 ± 0.0092 | -0.002 ± 0.018 | 0.0085 ± 0.025 | 0.01 ± 0.016 | -0.0005 ± 0.00071 | 0.0005 ± 0.022
MyoF:CD106/VCAM-1 | -0.219 ± 0.035 | -0.012 ± 0.0071 | -0.0335 ± 0.0078 | -0.027 ± 0.023 | 0.004 ± 0.0014 | 0.023 ± 0.0014 | 0.0135 ± 0.0021 | -0.011 ± 0.016 | -0.017 ± 0.0085 | -0.017 ± 0.0057 | -0.0015 ± 0.013 | -0.0115 ± 0.0092 | -0.004 ± 0.0014 | -0.003 ± 0.0071 | -0.009 ± 0.017 | -0.002 ± 0.018 | -0.004 ± 0.016 | -0.01 ± 0.018 | -0.0055 ± 0.0078
MyoF:CXCL8/IL-8 | -0.049 ± 0.035 | -0.003 ± 0.02 | 0.008 ± 0.018 | 0.029 ± 0.0057 | -0.0065 ± 0.0078 | -0.162 ± 0.022 | -0.115 ± 0.025 | 0.019 ± 0.011 | 0.004 ± 0.017 | 0.036 ± 0.065 | 0 ± 0.0028 | 0.003 ± 0.02 | -0.0055 ± 0.018 | -0.0055 ± 0.025 | -0.0095 ± 0.037 | -0.005 ± 0.025 | 0.041 ± 0.075 | 0.0345 ± 0.1 | 0.0695 ± 0.13
MyoF:Collagen I | -0.01 ± 0.052 | -0.0095 ± 0.005 | -0.0205 ± 0.015 | 0.011 ± 0.0099 | -0.001 ± 0.0028 | 0.019 ± 0.0099 | 0.001 ± 0.016 | -0.006 ± 0.0014 | 0.0025 ± 0.013 | -0.0125 ± 0.015 | 0.004 ± 0.013 | -0.0155 ± 0.015 | 0.018 | 0 ± 0.021 | -0.0005 ± 0.012 | 0.0015 ± 0.03 | 0.004 ± 0.0014 | -0.002 ± 0.016 | 0.0065 ± 0.026
MyoF:Collagen III | -0.037 ± 0.045 | -0.0105 ± 0.0078 | -0.019 ± 0.0085 | -0.03 ± 0.0028 | -0.0075 ± 0.00071 | -0.0495 ± 0.022 | -0.056 ± 0.02 | 0.0015 ± 0.00071 | -0.0095 ± 0.0064 | -0.0225 ± 0.0021 | -0.013 ± 0.016 | -0.032 ± 0.0028 | -0.0045 ± 0.011 | -0.005 | -0.0015 ± 0.005 | 0.0105 ± 0.005 | 0.0085 ± 0.012 | 0.0015 ± 0.0078 | 0.003 ± 0.017
